Read-outs that look alike come from different tables or passages of the source.
Tested on: NSCLC patients
[1] = FISH −, IHC +, EGFR Mut +, n 12
[2] = FISH −, IHC +, EGFR Mut −, n 39
[3] = FISH −, IHC −, EGFR Mut −, n 37
[4] = FISH+ or EGFR + (EGFR mutation), 46 pts
[5] = FISH+/EGFR+ (EGFR mutation), 17 pts
[6] = FISH−/EGFR− (EGFR mutation), 80 pts
[7] = triple positive: EGFR FISH, EGFR IHC, P-AKT
[8] = triple positive: EGFR FISH, IHC, mutation (12 patients)

Text: In order to make a more substantial statistical analysis and power, the inventors have analyzed the combined data set, which includes altogether 204 patients with NSCLC.
The multivariable analysis is based on an initial univariable analysis including clinical- and biological markers by using backward stepwise regression methods. All univariately significant covariates were included in the stepwise selection.

## COc1cc2ncnc(Nc3ccc(F)c(Cl)c3)c2cc1OCCCN1CCOCC1 [gefitinib]
[1]
  DCR: 44%
  OR (response rate): 22%
  OS (median survival): 11 (3-11) months
  TTP: 4 (2-7) months
[2]
  1-yr surv: 49% (33-64)
  DCR: 41%
  OR (response rate): 3%
  OS (median survival): 11 (8-18) months
  TTP: 3 (2-5) months
FISH −, IHC +, P-AKT +, N 35
  1-yr surv: 43% (26-59)
  DCR: 47%
  OR (response rate): 13%
  OS (median survival): 11 (6-15) months
  TTP: 4 (2-6) months
FISH −, IHC +, P-AKT −, N 23
  1-yr surv: 47% (27-68)
  DCR: 50%
  OR (response rate): 6%
  OS (median survival): 9 (7-9) months
  TTP: 4 (2-7) months
FISH −, IHC −, EGFR Mut +, n 6
  1-yr surv: 0% (0-30)
  DCR: 0%
  OR (response rate): 0%
  OS (median survival): 3 (1-3) months
  TTP: 2 (1-2) months
[3]
  1-yr surv: 37% (21-52)
  DCR: 21%
  OR (response rate): 3%
  OS (median survival): 6 (4-12) months
  TTP: 2 (2-3) months
FISH −, IHC −, P-AKT +, N 32
  1-yr surv: 29% (13-44)
  DCR: 18%
  OR (response rate): 4%
  OS (median survival): 6 (4-10) months
  TTP: 2 (2-3) months
FISH −, IHC −, P-AKT −, N 17
  1-yr surv: 29% (8-51)
  DCR: 14%
  OR (response rate): 0%
  OS (median survival): 6 (4-12) months
  TTP: 2 (2-5) months
[4]
  1-yr (1-year survival): 45% (30-59)
  MS (mo) (median survival): 10 (5-14) mo
  RSP (response rate): 15%
  TTP (mo) (time to progression): 3 (2-5) mo
[5]
  1-yr (1-year survival): 67% (71-100)
  RSP (response rate): 69%
  TTP (mo) (time to progression): 16 (3-20) mo
[6]
  1-yr (1-year survival): 42% (31-53)
  DCR (disease control rate): 29%
  MS (mo) (median survival): 10 (6-13) mo
  RSP (response rate): 3%
  TTP (mo) (time to progression): 3 (2-3) mo
KRAS Mutation+
  1-yr OS: 49% (33%-66%)
  DC (disease control): 39%
  MS (95% CI): 11 (6-23)
  OR (overall response): 7%
  TTP, median (95% CI): 3 (2-4)
KRAS Mutation-
  1-yr OS: 50% (40%-60%)
  DC (disease control): 40%
  MS (95% CI): 12 (8-15)
  TTP, median (95% CI): 3 (2-4)
P-AKT+
  DC (disease control): 49%
  MS (95% CI): 13 (10-16)
  TTP, median (95% CI): 4 (3-5)
P-AKT+ or EGFR IHC+
  1-yr survival: 43% (32-54)
  DCR: 34%
  MS: 8 (6-14) mo
  RSP: 6%
  TTP: 3 (2-3) mo
P-AKT+/EGFR IHC+
  1-yr survival: 63% (51-74)
  MS: 16 (12-21) mo
  RSP: 30%
  TTP: 6 (4-10) mo
P-AKT-
  DC (disease control): 33%
  MS (95% CI): 8 (6-14)
  OR (overall response): 2%
  TTP, median (95% CI): 3 (2-5)
P-AKT-/EGFR IHC-
  DCR: 21%
  MS: 6 (5-9) mo
  TTP: 2 (2-4) mo
Both cohorts, total
  Disease Control Rate: 43%
  Median Survival: 11 (8-14)
  Median Time to Progression: 3 (3-4)
  One-YR Survival: 48% (41-55)
  Overall Response: 15%
Performance status 2
  HR, survival, multivariable: 3.64
[7]
  Disease Control Rate: 80%
  response rate: 43%
  time to progression: 12 months
Triple positive: EGFR FISH, EGFR IHC, P-AKT, not achieved yet
  Median Survival: exceeding 20 months
[8]
  1-year survival: 100%
  Disease Control Rate: 78%
  response rate: 78%
  time to progression: 20 months
Triple positive: EGFR FISH, IHC, mutation, not yet achieved
  Median Survival: exceeding 20 months

— patent publication US9434994B2, “Methods for prediction of clinical outcome to epidermal growth factor receptor inhibitors by non-small cell lung cancer patients” (The Regents of the University of Colorado, a body corporate, priority 2004, dated 2016)
